Reference: US20220018852A1, “METHODS AND KITS FOR DETECTING LIVER DYSFUNCTION IN A SUBJECT” (priority 2018, published 2022)
Several values for one entry are separate records, joined by “and”; a condition that tells them apart may be missing. Equal entries are not always repeated. Structures can show the parent of a compound that is named as a salt.

Experiments:
albumin of rats = molecular target: T1, albumin of rats (Rattus norvegicus, UniProt P02770); assay: SEB test applied to serum of ethanol-treated rats; assay type: binding; conditions: L-thyroxine at 1/5, Au at 1/50
T1 construct: The SEB test was performed in the serum of all groups of rats; from tissue; host or cells: serum of male Wistar rats (ethanol-treated and control)
T1 sequence (P02770 25-608): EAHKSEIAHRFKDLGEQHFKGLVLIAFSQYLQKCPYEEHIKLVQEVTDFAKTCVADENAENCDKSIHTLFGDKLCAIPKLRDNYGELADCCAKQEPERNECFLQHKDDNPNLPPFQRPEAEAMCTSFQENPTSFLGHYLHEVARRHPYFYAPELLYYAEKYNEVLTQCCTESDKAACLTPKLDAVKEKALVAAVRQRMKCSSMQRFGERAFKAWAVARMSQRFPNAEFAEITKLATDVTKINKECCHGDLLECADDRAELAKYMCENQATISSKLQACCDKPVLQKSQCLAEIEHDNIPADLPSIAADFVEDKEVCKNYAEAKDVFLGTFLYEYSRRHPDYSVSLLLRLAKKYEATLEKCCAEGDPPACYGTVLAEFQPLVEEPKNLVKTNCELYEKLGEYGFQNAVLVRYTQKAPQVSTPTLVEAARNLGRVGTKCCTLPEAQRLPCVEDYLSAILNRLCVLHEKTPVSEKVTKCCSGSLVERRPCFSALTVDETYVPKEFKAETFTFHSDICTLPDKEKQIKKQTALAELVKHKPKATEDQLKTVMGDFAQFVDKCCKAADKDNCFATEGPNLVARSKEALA

HSA [1] = molecular target: T2, HSA (Homo sapiens, UniProt P02768); assay: Enhanced binding capacity of serum/HSA: serum of patients with no liver dysfunction spiked with ligand, ultrafiltration, ICP-MS of unbound ligand
T2 sequence (P02768 25-609): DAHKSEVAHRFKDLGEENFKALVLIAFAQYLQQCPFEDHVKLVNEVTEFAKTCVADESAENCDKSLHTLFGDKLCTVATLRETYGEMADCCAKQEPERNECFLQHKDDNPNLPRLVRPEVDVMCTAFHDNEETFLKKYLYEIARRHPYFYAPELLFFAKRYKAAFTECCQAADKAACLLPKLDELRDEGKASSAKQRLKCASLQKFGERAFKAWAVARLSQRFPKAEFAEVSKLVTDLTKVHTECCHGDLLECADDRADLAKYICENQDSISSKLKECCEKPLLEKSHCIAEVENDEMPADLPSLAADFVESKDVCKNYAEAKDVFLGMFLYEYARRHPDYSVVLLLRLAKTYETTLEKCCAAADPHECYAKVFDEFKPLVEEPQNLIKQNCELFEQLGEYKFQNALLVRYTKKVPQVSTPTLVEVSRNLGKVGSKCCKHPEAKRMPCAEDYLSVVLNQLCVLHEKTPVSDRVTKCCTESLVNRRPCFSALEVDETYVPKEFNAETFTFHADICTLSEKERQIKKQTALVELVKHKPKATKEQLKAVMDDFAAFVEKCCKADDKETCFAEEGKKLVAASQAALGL

HSA [2] = molecular target: T2, HSA; assay: Same binding test with Vialebex commercial albumin solution at 200 mg/mL; conditions: Vialebex commercial solution of pure HSA
HSA [3] = molecular target: T2, HSA; assay: SEB test, discovery cohort: cirrhotic patients vs patients with no liver dysfunction; assay type: binding; conditions: for sensitivity of discrimination of cirrhotic from control patients / specificity of discrimination of cirrhotic from control patients: discovery cohort, 18 cirrhotic vs 18 controls, HSA/ligand Au 1/100, Cu 1/10, dansylsarcosine 1/5, L-thyroxine 1/10
HSA [4] = molecular target: T2, HSA; assay: SEB test, development cohort: 45 cirrhotic vs 45 control patients; assay type: binding; conditions: 45 cirrhotic vs 45 controls
HSA [5] = molecular target: T2, HSA; conditions: literature [21]; cited from earlier work

With O.O.O.[Cl][Au]([Cl])[Cl] [Au, gold(III) chloride trihydrate] the “SEB test result in rat serum” value (albumin of rats; as soon as D1 (ethanol for 1 day)) was “positive”.
With [Cl][Cu][Cl] [Cu, copper(II) chloride] the “retention when more Cu was added” value (HSA [1]; above 12 Cu atoms per albumin molecule) was no more than 40%, the “Cu atoms per albumin molecule retained on the ultracentrifugation filter” value (HSA [1]; serum of patients with no liver dysfunction, average retention of 95%) was “up to 12 atoms per albumin molecule” and the average retention (HSA [1]; up to 12 Cu atoms per albumin molecule) was 95%. The ligand/HSA retention ratio (HSA [2]) was 40, the “Ratio Cu/HSA, reference value” (HSA [3]; control patients, mean) was 4.3 μM/μg/L and the “sensitivity of discrimination of cirrhotic from control patients” value (HSA [3]) was 100%. The “specificity of discrimination of cirrhotic from control patients” value (HSA [3]) was 72%, the “Ratio Cu/HSA (ligand in the filtrate / albumin)” value (HSA [3]; individual cirrhotic patients 1-18, one value per patient, HSA/Cu 1/10) was 7.5 μM/μg/L and 4.97 μM/μg/L and 9.33 μM/μg/L and 15.85 μM/μg/L and 5.5 μM/μg/L and 10.45 μM/μg/L and 9.07 μM/μg/L and 6.86 μM/μg/L and 9.64 μM/μg/L and 7.54 μM/μg/L and 6.74 μM/μg/L and 4.76 μM/μg/L and 5.59 μM/μg/L and 8.25 μM/μg/L and 10.68 μM/μg/L and 11.02 μM/μg/L and 5.26 μM/μg/L and 5.56 μM/μg/L and the “Ratio Cu/HSA (ligand in the filtrate / albumin)” value (HSA [3]; patient 19, NASH without cirrhosis) was 5.1 μM/μg/L. The “specificity (Sp)” value (HSA [4]) was 98% and the “atoms of Cu HSA is able to bind (reported)” value (HSA [5]) was “less than 2 atoms”.
With CN(C)c1cccc2c(S(=O)(=O)N(C)CC(=O)O)cccc12 [dansylsarcosine, Dansylsarcosine Piperidinium Salt] the “molecules bound per molecule of albumin” value (HSA [1]; serum samples, 100% retention, L-thyroxine not testable above 1/10 ratio (dissolution problems)) was ≤ 2.5 molecules per molecule of albu, the “Ratio DS/HSA, reference value” (HSA [3]; control patients, mean) was 0.23 μM/μg/L and the “sensitivity of discrimination of cirrhotic from control patients” value (HSA [3]) was 100%. The “specificity of discrimination of cirrhotic from control patients” value (HSA [3]) was 100%, the “Ratio DS/HSA (ligand in the filtrate / albumin)” value (HSA [3]; individual cirrhotic patients 1-18, one value per patient, HSA/dansylsarcosine 1/5, listed as DS) was 4.77 μM/μg/L and 2.26 μM/μg/L and 5.71 μM/μg/L and 7.58 μM/μg/L and 0.78 μM/μg/L and 16.38 μM/μg/L and the “specificity (Sp)” value (HSA [4]) was 98%.
With [Cd] [Cd] the “atoms bound per molecule of albumin” value (HSA [1]; serum samples, 100% retention) was ≤ 50 atoms per molecule of albumin, the “specificity (Sp)” value (HSA [4]) was 98% and the “SEB test result in rat serum” value (albumin of rats; group D14 (ethanol for 14 days), Cu, Cd) was “positive”.
